In US12168673B2 (Mitopower, Inc., priority 2022, dated 2024):

Key:
[1] = system: Huh-7 Cells; test: Cellular NAD+ levels in Huh-7 cells (LCMS/MS); format: cell-based; details: 125 μm, four hours of incubation
Description: (§1) Huh-7 Cells, sourced from NCCS Pune, were cultured in RPMI media containing FBS & Antibiotics. Cells from different flasks (80-90% confluent) were pooled into a 15 mL conical tube and centrifuged for 5 mins at 1200 rpm for 5 mins. The supernatant solution was discarded, and the pellet was washed with 5 mL sterile PBS (without Ca^2+ and Mg^2+). The tube was then centrifuged at 1200 rpm for 5 mins and the supernatant was discarded. The cell pellet was resuspended in 7 mL of RPMI media, and a cell count was done using 10 uL of the cell solution. 1.5 million cells from the cell solution were seeded into 1.5 mL microcentrifuge tubes. […] The tubes were placed in racks and gently swirled to mix the compounds into the media containing the cells. These tubes were then incubated for 4 hours in a 37° C. incubator at 5% CO2. After 4 hours of incubation the cells were spun down at 1000 rpm for 10 mins, the supernatant was discarded carefully, and cells were snap frozen in liquid nitrogen. When the samples were run, the extraction of the cells was on ice, cells were lysed using 20 uL deionized water and then ice cold 80% methanol containing the internal standard—Rac-Tenofovir D was added. The tubes were then vortexed at 2500 rpm for 8 minutes and then centrifuged at […] for 10 minutes. 150 uL of the supernatant was carefully transferred to HPLC vials and was analyzed for NAD^+ on the Abscised 4000 Q Trap LCMS/MS system. A C18, 3.5 μm, 2.1×100 mm, Bridge Column was used in the LC. The mobile phase consisted of 10 mM ammonium acetate with 0.1% acetic acid & 0.1% hexylamine as Solvent-A and 10 mM Ammonium acetate with 0.1% acetic acid and 0.1% hexylamine in 95/5 MeOH/H2O as Solvent-B. The gradient used was 0 mins-0.0% B, 0.5 mins-100% B, 1.5 mins-100% B, 3.0 mins-100% B, 3.1 mins-0.0% B, 7.0-STOP. The column flow rate was 0.5 mL/min. The sample injection volume was […].

[2] = Stability in solutions (pH range, simulated gastric fluid, simulated intestinal fluid); format: physicochemical
Description: 1 mg/ml solutions of compound 100 were prepared in each buffer, diluted to 0.1 mg/ml in methanol at each time point and analyzed as follows: Gemini C-18, 250×4.6 mm, 5 im, Mobile Phase: Methanol Isocratic Flow Rate: 0.4 mL/min.

[3] = system: Jurkat Cells; test: Cellular NAD+ levels in Jurkat cells (LCMS/MS); format: cell-based; details: 30 μM, four hours of incubation
Description: Compounds 100, 101 and 102 were weighted out to prepare 60 μM stock solutions in RPMI media. 200 ng/mL solution of Rac-tenofovir d6 (Vivan Life-Sciences) was prepared in methanol (MeOH) and placed at −20° C. until use.
as §1, with “Jurkat Cells,” for “Huh-7 Cells,”, “flasks (90%” for “flasks (80-90%”, “Ca^2+ &” for “Ca^2+ and”, “acid and” for “acid &”

O=C(OC[C@H]1OC(O)[C@H](O)[C@@H]1O)c1ccccn1 (stereo partly drawn) [Compound 102, (3,4,5-trihydroxytetrahydrofuran-2-yl) methyl picolinate]
NAD+ level increase compared to untreated cells [1]: showed an increase
% remaining ([2]; SGF (simulated gastric fluid), 0 h): 95.54%
% remaining ([2]; SGF (simulated gastric fluid), 1 week): 91.04%
% remaining ([2]; SGF (simulated gastric fluid), 1 h): 94.73%
% remaining ([2]; SGF (simulated gastric fluid), 2 h): 93.68%
% remaining ([2]; SGF (simulated gastric fluid), 4 h): 93.65%
% remaining ([2]; SGF (simulated gastric fluid), 8 h): 93.69%
% remaining ([2]; SGF (simulated gastric fluid), 24 h): 93.61%
% remaining ([2]; SGF (simulated gastric fluid), 48 h): 93.58%
% remaining ([2]; SIF (simulated intestinal fluid), 0 h): 96.45%
% remaining ([2]; SIF (simulated intestinal fluid), 1 week): 84.49%
% remaining ([2]; SIF (simulated intestinal fluid), 1 h): 96.01%
% remaining ([2]; SIF (simulated intestinal fluid), 2 h): 96.02%
% remaining ([2]; SIF (simulated intestinal fluid), 4 h): 95.96%
% remaining ([2]; SIF (simulated intestinal fluid), 8 h): 95.77%
% remaining ([2]; SIF (simulated intestinal fluid), 24 h): 94.28%
% remaining ([2]; SIF (simulated intestinal fluid), 48 h): 93.75%
% remaining ([2]; pH 1, 0 h): 95.73%
% remaining ([2]; pH 1, 1 week): 95.56%
% remaining ([2]; pH 1, 1 h): 95.69%
% remaining ([2]; pH 1, 2 h): 95.64%
% remaining ([2]; pH 1, 4 h): 95.61%
% remaining ([2]; pH 1, 8 h): 95.64%
% remaining ([2]; pH 1, 24 h): 95.61%
% remaining ([2]; pH 1, 48 h): 95.64%
% remaining ([2]; pH 2, 0 h): 95.67%
% remaining ([2]; pH 2, 1 week): 95.39%
% remaining ([2]; pH 2, 1 h): 95.65%
% remaining ([2]; pH 2, 2 h): 95.66%
% remaining ([2]; pH 2, 4 h): 95.64%
% remaining ([2]; pH 2, 8 h): 95.67%
% remaining ([2]; pH 2, 24 h): 95.56%
% remaining ([2]; pH 2, 48 h): 95.54%
% remaining ([2]; pH 4, 0 h): 95.37%
% remaining ([2]; pH 4, 1 week): 94.76%
% remaining ([2]; pH 4, 1 h): 95.32%
% remaining ([2]; pH 4, 2 h): 95.27%
% remaining ([2]; pH 4, 4 h): 95.25%
% remaining ([2]; pH 4, 8 h): 95.26%
% remaining ([2]; pH 4, 24 h): 95.26%
% remaining ([2]; pH 4, 48 h): 95.05%
% remaining ([2]; pH 6, 0 h): 96.31%
% remaining ([2]; pH 6, 1 week): 94.47%
% remaining ([2]; pH 6, 1 h): 96.32%
% remaining ([2]; pH 6, 2 h): 96.26%
% remaining ([2]; pH 6, 4 h): 96.27%
% remaining ([2]; pH 6, 8 h): 96.25%
% remaining ([2]; pH 6, 24 h): 95.73%
% remaining ([2]; pH 6, 48 h): 95.66%
% remaining ([2]; pH 7.4, 0 h): 95.8%
% remaining ([2]; pH 7.4, 1 week): 61.5%
% remaining ([2]; pH 7.4, 1 h): 95.7%
% remaining ([2]; pH 7.4, 2 h): 94.95%
% remaining ([2]; pH 7.4, 4 h): 94.34%
% remaining ([2]; pH 7.4, 8 h): 93.43%
% remaining ([2]; pH 7.4, 24 h): 90.13%
% remaining ([2]; pH 7.4, 48 h): 83.6%
% remaining ([2]; pH 9, 0 h): 94.05%
% remaining ([2]; pH 9, 1 week): 0%
% remaining ([2]; pH 9, 1 h): 74.72%
% remaining ([2]; pH 9, 2 h): 56.28%
% remaining ([2]; pH 9, 4 h): 49.14%
% remaining ([2]; pH 9, 8 h): 23.34%
% remaining ([2]; pH 9, 24 h): 14.94%
% remaining ([2]; pH 9, 48 h): 0.63%
NAD+ level increase compared to untreated cells [3]: showed statistical significance in terms of NAD^+ level increases
